Series [1] deals with thyroparathyroidectomized (TPTX) rats. Description: PTH-induced hypercalcemia in the TPTX rat model of bone resorption. It is filed as in vivo, rat (male Sprague Dawley). The conditions noted are these: PTH treated TPTX rats; s.c. twice at 30 mg/kg, at time 0 and 3 h after start of PTH infusion; serum collected at 6 hours. From the text:
3) Pharmacological Testing: PTH-Induced Hypercalcemia in the TPTX Rat Model of Bone Resorption
In this in vivo model a stimulation of bone resorption is induced in thyroparathyroidectomized (TPTX) rats by the infusion of parathyroid hormone (PTH). The changes in bone resorption are monitored by measuring the serum calcium concentration which is directly related to the extent of bone resorption.
Male Sprague Dawley rats (OFA-IFFA CREDO, France) weighting 150-200 g were thyroparathyroidectomized by the supplier. The rats were allowed free access to a standard commercial pelleted diet containing 7 g Ca/kg (UAR) and Eau de Volvic water. The success of thyroparathyroidectomy was tested by measuring serum calcium concentrations 8 days after operation in overnight fasted animals. Rats were considered as TPTX when the serum calcium level was <80 mg/l.
For treatment with PTH, rat PTH(1-34) (Bachem) was dissolved in 0.15 M sodium chloride solution containing 2% Cys-HCl and delivered via osmotic minipumps (ALZET 2001D) at 200 pmol/kg/h. […]
Serum total calcium concentrations (=calcemia) were measured colorimetrically (Ciba-Corning) using a IEMS Labsystems microplate reader at 540 nm. The differences between the mean values of calcemia in the groups were analysed for variance and by Dunnett's test. The activity of the test compound was calculated as % effect according to the formula: [formula]

Counter-ions that a name gives are not always drawn.

The term melting point denotes the temperature, or range, at which the solid turns liquid. Consider `CC(C)OC(=O)[C@H](CNC(=O)c1ccc(CCC(=O)NC2=NCCCN2)cc1)NC(=O)OCC12CC3CC(CC(C3)C1)C2` (as salt: hydrochloride) [formula IIc, (2S)-2-(Adamantan-1-ylmethoxycarbonylamino)-3-(4-(2-(1,4,5,6-tetrahydropyrimidin-2-ylcarbamoyl)ethyl)benzoylamino)propionic Acid Isopropyl Ester Hydrochloride], for which the melting point was 208 to 210 °C.
In the case of `CC(C)OC(=O)[C@H](CNC(=O)c1ccc(CCC(=O)NC2=NCCCN2)cc1)NC(=O)OCC12CC3CC(CC(C3)C1)C2` [formula IIc, (2S)-2-(Adamantan-1-ylmethoxycarbonylamino)-3-(4-(2-(1,4,5,6-tetrahydropyrimidin-2-ylcarbamoyl)ethyl)benzoylamino)propionic Acid Isopropyl Ester Hydrochloride], the “% effect (on calcemia = serum total calcium concentration)” value in series [1] is listed as −97%.
